Laboratory results published in patent publication US11053196B2, “Substituted indoline derivatives as dengue viral replication inhibitors” (JANSSEN PHARMACEUTICALS, INC., priority 2017, dated 2021).

Legend:
DENV-1 strain TC974#666 = assay: Tetravalent RT-qPCR assay, serotype 1; type: cell-based; conditions: Dengue virus, DENV1, 72 h; RT-qPCR serotype 1 TC974#666, Vero cells, day 3
Protocol: (§1) The antiviral activity of the compounds of the invention was tested against DENV-1 strain TC974#666 (NCPV), DENV-2 strain 16681, DENV-3 strain H87 (NCPV) and DENV-4 strain H241 (NCPV) in a RT-qPCR assay. Therefore, Vero cells were infected with either DENV-1, or -2, or -3, or -4 in the presence or absence of test compounds. At day 3 post-infection, the cells were lysed and cell lysates were used to prepare cDNA of both a viral target (the 3′UTR of DENV; Table 2) and a cellular reference gene (1-actin, Table 2). Subsequently, a duplex real time PCR was performed on a Lightcycler480 instrument. The generated Cp value is inversely proportional to the amount of RNA expression of these targets. Inhibition of DENV replication by a test compound results in a shift of Cp's for the 3′UTR gene. On the other hand, if a test compound is toxic to the cells, a similar effect on 1-actin expression will be observed. The comparative ΔΔCp method is used to calculate EC50, which is based on the relative gene expression of the target gene (3′UTR) normalized with the cellular housekeeping gene (1-actin). In addition, CC50 values are determined based on the C, values acquired for the housekeeping gene β-actin.
(§2) The culture medium consisted of minimal essential medium supplemented with 2% of heat-inactivated fetal calf serum, 0.04% gentamycin (50 mg/mL) and 2 mM of L-glutamine. Vero cells, obtained from ECACC, were suspended in culture medium and 75 μL/well was added in 96-well plates (10000 cells/well), which already contain the antiviral compounds. […] In addition, each plate contains wells which are assigned as virus controls (containing cells and virus in the absence of compound) and cell controls (containing cells in the absence of virus and compound). Once the cells were added in the plates, the plates were incubated in a fully humidified incubator (37° C., 5% CO2) until the next day. Dengue viruses serotype-1, 2, 3 and 4 were diluted in order to obtain a Cp of ˜22-24 in the assay. Therefore, 25 μL of virus suspension was added to all the wells containing test compound and to the wells assigned as virus control. In parallel, 25 μL of culture medium was added to the cell controls. Next, the plates were incubated for 3 days in a fully humidified incubator (37° C., 5% CO2). After 3 days, the supernatant was removed from the wells and the cells were washed twice with ice-cold PBS (−100 μL). The cell pellets within the 96-well plates were stored at −80° C. for at least 1 day. Next, RNA was extracted using the Cells-to-CT™ lysis kit, according to the manufacturer's guideline (Life Technologies). The cell lysates can be stored at −80° C. or immediately used in the reverse transcription step.
(§3) In preparation of the reverse transcription step, mix A (table 3A) was prepared and 7.57 μL/well was dispensed in a 96-well plate. After addition of 5 μL of the cell lysates, a five minute denaturation step at 75° C. was performed (table 3B). Afterwards, 7.43 μL of mix B was added (table 3C) and the reverse transcription step was initiated (table 3D) to generate cDNA.
(§4) Finally, a RT-qPCR mix was prepared, mix C (table 4A), and 22.02 μL/well was dispensed in 96-well LightCycler qPCR plates to which 3 μL of cDNA was added and the qPCR was performed according to the conditions in table 4B on a LightCycler 480.
(§5) Using the LightCycler software and an in-house LIMS system, dose response curves for each compound were calculated and the half maximal effective concentration (EC50) and the half maximal cytotoxic concentration (CC50) were determined (Tables 5-8).

DENV-4 strain H241 = assay: Tetravalent RT-qPCR assay, serotype 4; type: cell-based; conditions: Dengue virus, DENV4, 72 h; RT-qPCR serotype 4 H241, Vero cells, day 3
Protocol: as §1, §2, §3, §4, §5

DENV-2 strain 16681 = assay: Tetravalent RT-qPCR assay, serotype 2; type: cell-based; conditions: Dengue virus, DENV2, 72 h; RT-qPCR serotype 2 16681, Vero cells, day 3
Protocol: as §1, §2, §3, §4, §5

DENV-2 16681 strain = assay: DENV-2 antiviral assay (eGFP-labeled virus in Vero cells); type: cell-based, Dengue virus; conditions: DENV-2 16681 eGFP, MOI 0.5, 3 days
Protocol: The antiviral activity of all the compounds of the invention was tested against the DENV-2 16681 strain which was labeled with enhanced green fluorescent protein (eGPF). The culture medium consists of minimal essential medium supplemented with 2% of heat-inactivated fetal calf serum, 0.04% gentamycin (50 mg/mL) and 2 mM of L-glutamine. Vero cells, obtained from ECACC, were suspended in culture medium and 25 μL was added to 384-well plates (2500 cells/well), which already contain the antiviral compounds. Typically, these plates contain a 5-fold serial dilution of 9 dilution steps of the test compound at 200 times the final concentration in 100% DMSO (200 nL). […] Finally, each plate contains wells which are assigned as virus controls (containing cells and virus in the absence of compound), cell controls (containing cells in the absence of virus and compound) and medium controls (containing medium in the absence of cells, virus and compounds). To the wells assigned as medium control, 25 μL of culture medium was added instead of Vero cells. Once the cells are added to the plates, the plates were incubated for 30 minutes at room temperature to allow the cells to distribute evenly within the wells. Next, the plates were incubated in a fully humidified incubator (37° C., 5% CO2) until the next day. Then, DENV-2 strain 16681, labeled with eGFP, was added at a multiplicity of infection (MOI) of 0.5.
Therefore, 15 μL of virus suspension was added to all the wells containing test compound and to the wells assigned as virus control. In parallel, 15 μL of culture medium was added to the medium and cell controls. Next, the plates were incubated for 3 days in a fully humidified incubator (37° C., 5% CO2). At the day of the read out, the eGFP fluorescence was measured using an automated fluorescence microscope at 488 nm (blue laser). Using an in-house LIMS system, inhibition dose response curves for each compound were calculated and the half maximal effective concentration (EC50) was determined. Therefore, the percent inhibition (I) for every test concentration is calculated using the following formula: I=100*(ST−SCC)/(SVC−SCC); ST, SCC and SVC are the amount of eGFP signal in the test compound, cell control and virus control wells, respectively. The EC50 represents the concentration of a compound at which the virus replication is inhibited with 50%, as measured by a 50% reduction of the eGFP fluorescent intensity compared to the virus control. The EC50 is calculated using linear interpolation (Table 1).

DENV-3 strain H87 = assay: Tetravalent RT-qPCR assay, serotype 3; type: cell-based; conditions: Dengue virus, DENV3, 72 h; RT-qPCR serotype 3 H87, Vero cells, day 3
Protocol: as §1, §2, §3, §4, §5

Vero cells = conditions: African green monkey
in vitro [1] = type: cell-based; conditions: African green monkey
Protocol: as §1, with “The comparative ΔΔCp method is used to calculate EC50, which is based on the relative gene expression of the target gene (3′UTR) normalized with the cellular housekeeping gene (1-actin).” left out, “β-actin. […]” for “β-actin.”
as §5

in vitro [2] = conditions: African green monkey
[3] = Toxicity in DENV-2 antiviral assay plates (ATPlite cell viability); conditions: African green monkey, CC50, Vero cells, same plates as DENV-2 antiviral assay

Row | SMILES | EC50 (DENV-1 strain TC974#666) | EC50 (DENV-4 strain H241) | EC50 (DENV-2 strain 16681) | EC50 (DENV-2 16681 strain) | EC50 (DENV-3 strain H87) | CC50 (Vero cells) | CC50 at 3 days (in vitro [1]) | CC50 (in vitro [2]) | CC50 [3]
1 | COc1cc(NC(C(=O)N2CCc3cc(F)c(OC(F)(F)F)cc32)c2ccc(Cl)cc2)cc(OCCCC(=O)O)c1 (single isomer, unassigned) [Compound 5B, 4-(3-((1-(4-chlorophenyl)-2-(5-fluoro-6-(trifluoromethoxy)indolin-1-yl)-2-oxoethyl)amino)-5-methoxyphenoxy)butanoic acid] | 0.33 nM | 20 nM | 0.29 nM | 0.12 nM | 2.6 nM | 12 µM | – | – | –
2 | COc1cc(NC(C(=O)N2CCc3cc(F)c(C(F)(F)F)cc32)c2ccc(Cl)cc2)cc(OCCCC(=O)O)c1 (single isomer, unassigned) [Compound 3B, 4-(3-((1-(4-chlorophenyl)-2-(5-fluoro-6-(trifluoromethyl)indolin-1-yl)-2-oxoethyl)amino)-5-methoxyphenoxy)butanoic acid] | 0.1 nM | 14 nM | 0.096 nM | 0.12 nM | 1.5 nM | – | > 2500 nM | 13 µM | –
3 | COc1cc(NC(C(=O)N2CCc3cc(F)c(C(F)(F)F)cc32)c2ccc(Cl)cc2)cc(OCCCC(=O)O)c1 (single isomer, unassigned) [Compound 3A, 4-(3-((1-(4-chlorophenyl)-2-(5-fluoro-6-(trifluoromethyl)indolin-1-yl)-2-oxoethyl)amino)-5-methoxyphenoxy)butanoic acid] | – | – | – | 36 nM | – | – | – | – | 12 µM
4 | [2H]C(Nc1cc(OC)cc(OCCCC(=O)O)c1)(C(=O)N1CCc2ccc(OC(F)(F)F)cc21)c1ccc(Cl)cc1 (single isomer, unassigned) [Compound 7B-D, 4-(3-((1-(4-chlorophenyl)-1-deuterio-2-oxo-2-(6-(trifluoromethoxy)indolin-1-yl)ethyl)amino)-5-methoxyphenoxy)butanoic acid] | – | – | – | 16 nM | – | 9.6 µM | – | – | –
5 | COc1cc(NC(C(=O)N2CCc3c(C)cc(C(F)(F)F)cc32)c2ccc(Cl)cc2)cc(OCCCC(=O)O)c1 (single isomer, unassigned) [Compound 2B, 4-(3-((1-(4-chlorophenyl)-2-(4-methyl-6-(trifluoromethyl)indolin-1-yl)-2-oxoethyl)amino)-5-methoxyphenoxy)butanoic acid] | 0.091 nM | 10 nM | 0.061 nM | 0.078 nM | 0.85 nM | 14 µM | – | – | –
6 | COc1cc(NC(C(=O)N2CCc3sc(C(F)(F)F)cc32)c2ccc(Cl)cc2)cc(OCCCC(=O)O)c1 (single isomer, unassigned) [Compound 10B, 4-(3-((1-(4-chlorophenyl)-2-oxo-2-(2-(trifluoromethyl)-5,6-dihydro-4H-thieno[3,2-b]pyrrol-4-yl)ethyl)amino)-5-methoxyphenoxy)butanoic acid] | – | – | – | 37 nM | – | 12 µM | – | – | –
7 | COc1cc(NC(C(=O)N2CCc3ccc(S(F)(F)(F)(F)F)cc32)c2ccc(Cl)cc2)cc(OCCCC(=O)O)c1 (single isomer, unassigned) [Compound 1B, 4-(3-((1-(4-chlorophenyl)-2-oxo-2-(6-(pentafluoro-λ^6-sulfanyl)indolin-1-yl)ethyl)amino)-5-methoxyphenoxy)butanoic acid] | 0.096 nM | 9.6 nM | 0.18 nM | 0.11 nM | 1.9 nM | 13 µM | – | – | –
8 | COc1cc(NC(C(=O)N2CCc3c(C)cc(OC(F)(F)F)cc32)c2ccc(Cl)cc2)cc(OCCCC(=O)O)c1 (single isomer, unassigned) [Compound 4B, 4-(3-((1-(4-chlorophenyl)-2-(4-methyl-6-(trifluoromethoxy)indolin-1-yl)-2-oxoethyl)amino)-5-methoxyphenoxy)butanoic acid] | 0.11 nM | 12 nM | 0.067 nM | 0.057 nM | 0.92 nM | – | – | 13 µM | –
9 | COc1cc(NC(C(=O)N2CCc3c(C)cc(OC(F)(F)F)cc32)c2ccc(Cl)cc2)cc(OCCCC(=O)O)c1 (single isomer, unassigned) [Compound 4A, 4-(3-((1-(4-chlorophenyl)-2-(4-methyl-6-(trifluoromethoxy)indolin-1-yl)-2-oxoethyl)amino)-5-methoxyphenoxy)butanoic acid] | – | – | – | 11 nM | – | – | – | – | 13 µM
10 | COc1cc(NC(C(=O)N2CCc3sc(C(F)(F)F)cc32)c2ccc(Cl)cc2)cc(OCCCC(=O)O)c1 (single isomer, unassigned) [Compound 10A, 4-(3-((1-(4-chlorophenyl)-2-oxo-2-(2-(trifluoromethyl)-5,6-dihydro-4H-thieno[3,2-b]pyrrol-4-yl)ethyl)amino)-5-methoxyphenoxy)butanoic acid] | 0.22 nM | 30 nM | 0.11 nM | 0.3 nM | 4.2 nM | – | – | 14 µM | –
11 | [2H]C(Nc1cc(OC)cc(OCCCC(=O)O)c1)(C(=O)N1CCc2ccc(OC(F)(F)F)cc21)c1ccc(Cl)cc1 (single isomer, unassigned) [Compound 7A-D, 4-(3-((1-(4-chlorophenyl)-1-deuterio-2-oxo-2-(6-(trifluoromethoxy)indolin-1-yl)ethyl)amino)-5-methoxyphenoxy)butanoic acid] | 0.24 nM | 13 nM | 0.16 nM | 0.1 nM | 2.4 nM | – | – | 12 µM | –
